In ChEMBL document CHEMBL1147273, “3-Dimethylallylindole: an antibacterial and antifungal metabolite from Monodora tenuifolia” (1986):
≈ marks a conversion by molar mass, not a printed value. Calls of active or inactive are those of the source. No cut-off for these calls is given here.

Legend:
Cryptococcus neoformans = assay: Antimicrobial activity against Cryptococcus neoformans ATCC 32264 by towfold serial dilution method; format: functional
Candida albicans [1] = assay: Antimicrobial activity against Candida albicans NIH B311 by towfold serial dilution method; format: functional
Candida albicans [2] = assay: Antimicrobial activity against Candida albicans ATCC 10231 by towfold serial dilution method; format: functional
Candida albicans [3] = assay: Antimicrobial activity against Candida albicans WH by towfold serial dilution method; format: functional
Aspergillus niger = assay: Antimicrobial activity against Aspergillus niger ATCC 16888 by towfold serial dilution method; format: functional, organism-based
Trametes sanguinea = assay: Antimicrobial activity against Pycnoporus sanguineus ATCC 14622 by towfold serial dilution method; format: functional
Bacillus subtilis = assay: Antimicrobial activity against Bacillus subtilis ATCC 6633 by towfold serial dilution method; format: functional
Helminthosporium = assay: Antimicrobial activity against Helminthosporium sp. NRRL 4671 by towfold serial dilution method; format: functional
Escherichia coli = assay: Antimicrobial activity against Escherichia coli ATCC 10536 by towfold serial dilution method; format: functional, organism-based
[4] = test system: Trichophyton mentagrophytes; assay: Antimicrobial activity against Trichophyton mentagrophytes ATCC 9172 by towfold serial dilution method; format: functional
Pseudomonas aeruginosa = assay: Antimicrobial activity against Pseudomonas aeruginosa ATCC 15442 by towfold serial dilution method; format: functional, organism-based
Staphylococcus aureus = assay: Antimicrobial activity against Staphylococcus aureus ATCC 6538 by towfold serial dilution method; format: functional
Saccharomyces cerevisiae = assay: Antimicrobial activity against Saccharomyces cerevisiae ATCC 9763 by towfold serial dilution method; format: functional
[5] = test system: Mycolicibacterium smegmatis; assay: Antimicrobial activity against Mycobacterium smegmatis ATCC 607 by towfold serial dilution method; format: functional

MIC (Cryptococcus neoformans): 12.5 µg/mL (≈ 67.5 µM)
MIC (Candida albicans [1]): 25 µg/mL (≈ 135 µM)
MIC (Candida albicans [2]): 25 µg/mL (≈ 135 µM)
MIC (Candida albicans [3]): 25 µg/mL (≈ 135 µM)
MIC (Trametes sanguinea): 12.5 µg/mL (≈ 67.5 µM)
MIC (Bacillus subtilis): 12.5 µg/mL (≈ 67.5 µM)
MIC (Helminthosporium): 0.78 µg/mL (≈ 4.21 µM)
MIC [4]: 1.56 µg/mL (≈ 8.42 µM)
MIC (Staphylococcus aureus): 12.5 µg/mL (≈ 67.5 µM)
MIC (Saccharomyces cerevisiae): 12.5 µg/mL (≈ 67.5 µM)
MIC [5]: 3.12 µg/mL (≈ 16.8 µM)
Compound: CC(C)=CCc1c[nH]c2ccccc12
Activity (Aspergillus niger): inactive
Activity (Escherichia coli): inactive
Activity (Pseudomonas aeruginosa): inactive
